This passage reports TGI results from PubChem BioAssay (NCI).

Structures are written as SMILES.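 96-well plates; 48 h exposure; 5 concentrations. Endpoints by linear interpolation between flanking doses. Not reached: highest tested concentration assigned. TGI: total growth inhibition.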

Among the test systems are A549 NSCLC; HCT-15 colon; NCI-H460 lung; SN12C renal; HCT-116 colon; HOP-62 NSCLC; SK-OV-3 ovarian; MCF7 breast; HCC-2998 colon; BT-549 breast.
What all share (experiment): inhibition of tumour cell growth, NCI panel, 48 h

On to `O=c1cc(-c2ccc(O)cc2)n(C2CC2)c2ccccc12`, for which the TGI came out at 18.5 µM with A549 NSCLC; 16.8 µM in the test with HCT-15 colon; 17.3 µM in the test on NCI-H460 lung; 32.3 µM in the test with SN12C renal; 13.1 µM with HCT-116 colon; 21.3 µM with HOP-62 NSCLC. Besides, the TGI with SK-OV-3 ovarian is 42.6 µM; with MCF7 breast, 35.5 µM.
Turning to `CSc1nc(NC2OCC(OC(C)=O)C(OC(C)=O)C2OC(C)=O)c(N=C(C)C(C)=O)c(=O)[nH]1` (centres undefined), the TGI in the test with A549 NSCLC, with HCT-15 colon, in the test with NCI-H460 lung, in the test with SN12C renal and in the test on HCT-116 colon was above 100 µM throughout.
As to `O=C(C=P(c1ccccc1)(c1ccccc1)c1ccccc1)c1cccc(-c2cccc([N+](=O)[O-])c2)c1`, the TGI is above 100 µM with HCC-2998 colon; above 100 µM with A549 NSCLC; 21.1 µM with HCT-15 colon; above 100 µM with NCI-H460 lung; above 100 µM with SN12C renal; above 100 µM with HCT-116 colon. The TGI with HOP-62 NSCLC was above 100 µM; in the test on SK-OV-3 ovarian, 51.2 µM; with BT-549 breast, above 100 µM; in the test with MCF7 breast it was above 100 µM.
For the compound `O=C1N(c2ccccc2)C2(c3ccccc3)CC3CCCC13S2` (centres undefined), the TGI in the test on A549 NSCLC, in the test on HCT-15 colon, in the test with SN12C renal, in the test with HCT-116 colon, with HOP-62 NSCLC and with SK-OV-3 ovarian was above 100 µM each time. In addition, the TGI in the test with BT-549 breast and in the test on MCF7 breast was above 100 µM in each case.
As for `O=C(C[C@H](NC(=O)OCc1ccccc1)C(=O)NC1Cc2ccccc2OC1=O)OCc1ccccc1` (some centres undefined), the TGI in the test with HCC-2998 colon is 66.5 µM; with HCT-15 colon it was above 100 µM; in the test on NCI-H460 lung, above 100 µM; in the test on SN12C renal, above 100 µM; in the test with HCT-116 colon it was 76.3 µM; in the test with HOP-62 NSCLC it was above 100 µM. Further, the TGI was above 100 µM in the test on SK-OV-3 ovarian, above 100 µM in the test with BT-549 breast and 80.6 µM in the test with MCF7 breast.
For the compound `N#Cc1c(NC(=S)Nc2ccc(Cl)cc2)sc2c1CCCC2`, the TGI with HCC-2998 colon is above 100 µM; with HCT-15 colon, above 100 µM; with SN12C renal it was 50.4 µM; in the test on HCT-116 colon, above 100 µM; in the test on BT-549 breast, above 100 µM; in the test with MCF7 breast, above 100 µM.
`OC1(c2ccc(Cl)cc2)c2c(ccc3c2OCO3)C2=NCCN21` (centres undefined): the TGI in the test on A549 NSCLC, with HCT-15 colon, with NCI-H460 lung, in the test with SN12C renal, in the test on HCT-116 colon and with HOP-62 NSCLC was above 100 µM throughout. Also, the TGI in the test on SK-OV-3 ovarian, with BT-549 breast and in the test with MCF7 breast was above 100 µM throughout.
Take `O=C(O)c1cc(=O)[nH]c(SCc2ccccc2)n1`: the TGI with A549 NSCLC, with HCT-15 colon, in the test on NCI-H460 lung, with SN12C renal, with HCT-116 colon and in the test on HOP-62 NSCLC was above 100 µM throughout. In the test with BT-549 breast, this compound displayed a TGI above 100 µM.
Take `CC(C)CCC[C@@H](C)[C@H]1CC[C@H]2[C@@H]3CC[C@H]4C[C@H](N)CC[C@]4(C)[C@H]3CC[C@]12C`: the TGI with HCC-2998 colon was 64 µM; in the test with A549 NSCLC, 48.1 µM; in the test with HCT-15 colon it was 96.2 µM; in the test on NCI-H460 lung, above 100 µM; in the test on SN12C renal it was above 100 µM; in the test on HCT-116 colon it was above 100 µM. Further, the TGI with HOP-62 NSCLC came out at 70.7 µM; in the test on SK-OV-3 ovarian, 64.5 µM; in the test on BT-549 breast it was 67.6 µM; in the test on MCF7 breast, 68.4 µM.
Regarding `CCN(CC)CCCC(C)Nc1ccnc2cc3ccccc3cc12` (centres undefined), the TGI was above 100 µM with A549 NSCLC; 14.4 µM with HCT-15 colon; 24.4 µM with NCI-H460 lung; above 100 µM in the test on SN12C renal; above 100 µM in the test on HCT-116 colon; above 100 µM in the test with HOP-62 NSCLC. The figures for the TGI in the test on SK-OV-3 ovarian, in the test with BT-549 breast and in the test with MCF7 breast were 50 µM, 29.2 µM and 39 µM, respectively.
For `Cc1nc2c(n1C)C(=O)c1nc(CBr)[nH]c(=O)c1C2=O`, the TGI with A549 NSCLC, in the test on HCT-15 colon, in the test with NCI-H460 lung, with SN12C renal, in the test with HCT-116 colon and in the test on SK-OV-3 ovarian was above 100 µM each time.
Turning to `N/C(=N\S(=O)(=O)c1cccc2nsnc12)Nc1ccc(Cl)cc1`, the TGI in the test with A549 NSCLC is above 100 µM; with HCT-15 colon, above 100 µM; in the test on NCI-H460 lung, 67 µM; with SN12C renal it was above 100 µM; with HCT-116 colon, above 100 µM; with HOP-62 NSCLC, above 100 µM. Besides, the TGI in the test on SK-OV-3 ovarian, in the test on BT-549 breast and in the test on MCF7 breast was above 100 µM in each case.
Consider `CC(C)(C)OC(=O)NCC(=O)NC1c2ccsc2/C(=N/O)[C@H]1O` (some centres undefined), for which the TGI in the test with HCC-2998 colon, in the test with A549 NSCLC, in the test on HCT-15 colon, in the test with NCI-H460 lung, with SN12C renal and in the test with HCT-116 colon was above 100 µM in each case. Also, the TGI in the test on HOP-62 NSCLC, in the test on SK-OV-3 ovarian, in the test on BT-549 breast and in the test with MCF7 breast was above 100 µM in each case.
`CCCCCCCCCCCCCCCc1ccc(OCC(O)CO)cc1` (centres undefined): the TGI is 49.9 µM in the test with HCC-2998 colon; 50.1 µM with A549 NSCLC; above 100 µM in the test with HCT-15 colon; 53.6 µM in the test with NCI-H460 lung; 33.2 µM in the test with SN12C renal; 31.3 µM in the test with HCT-116 colon. The TGI with HOP-62 NSCLC and in the test on SK-OV-3 ovarian was above 100 µM throughout.
